Data from PMC6757289, “Design and Characterization of SGK3-PROTAC1, an Isoform Specific SGK3 Kinase PROTAC Degrader” (ACS Chemical Biology, 2019).
Like-named read-outs stand apart in the source and are kept apart here.

What was measured:
CDK2-Cyclin A = CDK2-Cyclin A (Homo sapiens, UniProt P24941); assay: kinase profiling panel; format: biochemical; conditions: read-out: % Activity Remaining
Excerpt: (§1) Protein kinase profiling against a Dundee panel of 140 protein kinases was undertaken at the International Centre for Protein Kinase Profiling. The result for each kinase was presented as a mean kinase activity of the reaction taken in triplicate relative to a control sample treated with DMSO. Assay conditions and abbreviations are available at http://www.kinase-screen.mrc.ac.uk.

ERK5 = ERK5 (Homo sapiens, UniProt Q13164); assay: kinase profiling panel; format: biochemical; conditions: read-out: % Activity Remaining
Excerpt: as §1

IGF-1R = IGF-1R (Homo sapiens, UniProt P08069); assay: kinase profiling panel; format: biochemical; conditions: read-out: % Activity Remaining
Excerpt: as §1

JNK1 = JNK1 (Homo sapiens, UniProt P45983); assay: kinase profiling panel; format: biochemical; conditions: read-out: % Activity Remaining
Excerpt: as §1

MEKK1 = MEKK1 (Homo sapiens, UniProt Q13233); assay: kinase profiling panel; format: biochemical; conditions: read-out: % Activity Remaining
Excerpt: as §1

MLK3 = MLK3 (Homo sapiens, UniProt Q16584); assay: kinase profiling panel; format: biochemical; conditions: read-out: % Activity Remaining
Excerpt: as §1

MNK1 = MNK1 (Homo sapiens, UniProt Q9BUB5); assay: kinase profiling panel; format: biochemical; conditions: read-out: % Activity Remaining
Excerpt: as §1

PIM3 = PIM3 (Homo sapiens, UniProt Q86V86); assay: kinase profiling panel; format: biochemical; conditions: read-out: % Activity Remaining
Excerpt: as §1

PKC gamma = PKC gamma (Homo sapiens, UniProt P05129); assay: kinase profiling panel; format: biochemical; conditions: read-out: % Activity Remaining
Excerpt: as §1

SIK2 = SIK2 (Homo sapiens, UniProt Q9H0K1); assay: kinase profiling panel; format: biochemical; conditions: read-out: % Activity Remaining
Excerpt: as §1

STK33 = STK33 (Homo sapiens, UniProt Q9BYT3); assay: kinase profiling panel; format: biochemical
Excerpt: as §1

p38 gamma MAPK = biological target: T1, p38 gamma MAPK (Homo sapiens, UniProt P53778); assay: kinase profiling panel; format: biochemical; conditions: read-out: % Activity Remaining
T1 sequence (P53778 1-367): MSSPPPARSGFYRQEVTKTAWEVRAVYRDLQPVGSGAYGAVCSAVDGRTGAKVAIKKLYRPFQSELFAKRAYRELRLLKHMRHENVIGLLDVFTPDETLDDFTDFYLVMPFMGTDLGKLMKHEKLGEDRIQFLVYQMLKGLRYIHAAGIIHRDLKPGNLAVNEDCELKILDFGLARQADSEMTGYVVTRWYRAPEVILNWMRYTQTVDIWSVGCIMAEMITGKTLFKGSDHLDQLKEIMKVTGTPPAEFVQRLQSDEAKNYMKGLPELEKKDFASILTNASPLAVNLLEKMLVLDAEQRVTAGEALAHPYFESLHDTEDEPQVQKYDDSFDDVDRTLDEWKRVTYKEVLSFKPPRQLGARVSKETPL
Excerpt: as §1

[1] = tested on: phosphorylation of NDRG1 at Thr346; assay: NDRG1 phosphorylation in HEK293 cells, immunoblot; format: cell-based; conditions: HEK293, 8 h; for pNDRG1 phosphorylation: basal, no inhibition of Akt
Experimental: Figure 3 Characterization of cellular activities of SGK3-PROTAC1 and cisSGK3-PROTAC1. (A) HEK293 cells were first treated for 8 h with 0.03–3 μM SGK3-PROTAC1 and cisSGK3-PROTAC1. One hour before lysis, cells were treated with 3 μM AZD5363. Lysates were subjected to immunoblot analysis with the indicated antibodies. […] Lysates were subjected to immunoblot analysis with the indicated antibodies. (C) HEK293 cells were treated for up to 48 h with SGK3-PROTAC1 (0.3 μM), and lysates were analyzed by immunoblot analysis using the indicated antibodies. (D) HEK293 cells were treated for 24 h with SGK3-PROTAC1. Cells were washed three times with DMEM to wash out the compound, and recovery of SGK3 expression protein was analyzed by immunoblot analysis. (E–G) As in A except that CAMA-1 (E), ZR-75-1 (F), and JIMT-1 (G) cells were employed rather than HEK293 cells.
To study the impact of SGK3-PROTAC1 on phosphorylation of a physiological substrate, we monitored phosphorylation of NDRG1 at Thr346.[37] This site is also phosphorylated by Akt; therefore we treated cells with increasing doses of SGK3-PROTAC1 and cisSGK3-PROTAC1 for 8 h, with the addition of an Akt inhibitor (3 μM AZD5363) 1 h before lysis, to remove the impact of Akt phosphorylation of NDRG1. […] Concentrations of cisSGK3-PROTAC1 of above 1 μM were required to lower NDRG1 phosphorylation. […] This is consistent with previous work in HEK293 cells showing that inhibition of both Akt and SGK3 is required to block NDRG1 phosphorylation.[8],[37]
All cell treatments were carried out as described in figure legends, to a final DMSO concentration of 0.1% (v/v). Lysates were quantified. Immunoblotting was performed using standard procedures, described in brief below. Lysate concentration was quantified by Bradford Assay, and 10 μg of lysate was loaded in the LDS sample buffer for SDS-PAGE electrophoresis on Novex 4–12% Bis–Tris gels. Proteins were electrophoretically transferred onto nitrocellulose membranes (Amersham Protran 0.45 μm NC; GE Healthcare) at 80 V for 80 min on ice in transfer buffer. Transferred membranes were blocked with 5% (w/v) nonfat dry milk dissolved in TBS-T [20 mM Tris/HCl, pH 7.5, 150 mM NaCl, and 0.1% (v/v) Tween 20] at RT for 30 min, before incubation with the primary antibody overnight at 4 °C. The signal was produced with near-infrared secondary antibodies and detected using a Licor Biosciences Odyssey System, and the signal was quantified in Image Studio Lite.

[2] = 0.1 μM, 3 μM AZD5363 1 h before lysis
[3] = 0.3 μM SGK3-PROTAC1, 1 μM 14H, 1 μM 308-R
[4] = in the presence of 3 μM AZD5363, 0.3 μM SGK3-PROTAC1, 1 μM 14H, 1 μM 308-R

Sequence of STK33 (Q9BYT3 whole entry): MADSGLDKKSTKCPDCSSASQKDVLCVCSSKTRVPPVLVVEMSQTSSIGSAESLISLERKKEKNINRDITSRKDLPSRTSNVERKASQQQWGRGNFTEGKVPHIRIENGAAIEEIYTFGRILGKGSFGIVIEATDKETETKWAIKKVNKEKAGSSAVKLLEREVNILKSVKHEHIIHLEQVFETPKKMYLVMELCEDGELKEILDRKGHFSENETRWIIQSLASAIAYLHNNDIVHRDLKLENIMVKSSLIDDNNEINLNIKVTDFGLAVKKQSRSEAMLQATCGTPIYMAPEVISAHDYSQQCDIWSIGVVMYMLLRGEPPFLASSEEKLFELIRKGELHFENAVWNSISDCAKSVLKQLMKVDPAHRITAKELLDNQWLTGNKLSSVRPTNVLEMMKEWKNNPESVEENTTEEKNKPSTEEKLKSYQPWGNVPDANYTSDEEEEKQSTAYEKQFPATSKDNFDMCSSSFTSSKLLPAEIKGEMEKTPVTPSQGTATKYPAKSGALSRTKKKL
Sequence of SIK2 (Q9H0K1 whole entry): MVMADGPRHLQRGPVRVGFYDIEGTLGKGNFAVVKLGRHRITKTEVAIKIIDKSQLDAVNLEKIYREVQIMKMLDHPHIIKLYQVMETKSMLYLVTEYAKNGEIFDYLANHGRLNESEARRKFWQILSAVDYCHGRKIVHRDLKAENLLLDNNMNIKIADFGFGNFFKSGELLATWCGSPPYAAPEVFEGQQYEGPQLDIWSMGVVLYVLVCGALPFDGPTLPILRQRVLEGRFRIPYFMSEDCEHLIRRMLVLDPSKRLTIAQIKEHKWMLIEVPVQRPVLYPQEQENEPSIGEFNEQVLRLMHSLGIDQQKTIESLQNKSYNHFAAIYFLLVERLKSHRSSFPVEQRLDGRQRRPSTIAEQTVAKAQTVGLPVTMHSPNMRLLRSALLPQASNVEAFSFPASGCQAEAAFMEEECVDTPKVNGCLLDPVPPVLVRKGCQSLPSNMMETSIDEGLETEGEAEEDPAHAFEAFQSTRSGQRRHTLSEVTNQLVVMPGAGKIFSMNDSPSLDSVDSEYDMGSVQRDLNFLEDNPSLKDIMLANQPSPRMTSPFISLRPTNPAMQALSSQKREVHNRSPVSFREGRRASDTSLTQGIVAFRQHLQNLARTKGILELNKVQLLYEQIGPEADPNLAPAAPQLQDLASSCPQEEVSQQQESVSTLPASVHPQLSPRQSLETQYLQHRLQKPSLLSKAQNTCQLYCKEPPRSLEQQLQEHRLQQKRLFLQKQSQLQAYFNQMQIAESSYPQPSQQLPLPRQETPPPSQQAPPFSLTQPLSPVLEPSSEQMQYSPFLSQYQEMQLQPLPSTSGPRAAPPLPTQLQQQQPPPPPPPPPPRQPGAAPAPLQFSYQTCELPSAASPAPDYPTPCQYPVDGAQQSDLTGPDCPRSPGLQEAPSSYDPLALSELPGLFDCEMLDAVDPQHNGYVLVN
Sequence of MNK1 (Q9BUB5 whole entry): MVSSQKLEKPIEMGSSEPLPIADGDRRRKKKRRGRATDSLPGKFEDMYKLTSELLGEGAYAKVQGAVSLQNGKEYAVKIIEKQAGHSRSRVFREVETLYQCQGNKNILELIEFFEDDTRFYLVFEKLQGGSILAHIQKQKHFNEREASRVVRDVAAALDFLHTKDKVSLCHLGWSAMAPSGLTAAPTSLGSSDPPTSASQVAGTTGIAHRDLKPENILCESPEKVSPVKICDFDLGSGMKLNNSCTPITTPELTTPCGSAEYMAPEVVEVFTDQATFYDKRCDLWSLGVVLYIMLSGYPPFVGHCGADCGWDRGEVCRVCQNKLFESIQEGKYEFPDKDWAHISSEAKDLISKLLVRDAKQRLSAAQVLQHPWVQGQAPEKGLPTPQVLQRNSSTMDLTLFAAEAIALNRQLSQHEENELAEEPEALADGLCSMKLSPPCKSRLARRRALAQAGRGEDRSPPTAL
Sequence of MEKK1 (Q13233 whole entry): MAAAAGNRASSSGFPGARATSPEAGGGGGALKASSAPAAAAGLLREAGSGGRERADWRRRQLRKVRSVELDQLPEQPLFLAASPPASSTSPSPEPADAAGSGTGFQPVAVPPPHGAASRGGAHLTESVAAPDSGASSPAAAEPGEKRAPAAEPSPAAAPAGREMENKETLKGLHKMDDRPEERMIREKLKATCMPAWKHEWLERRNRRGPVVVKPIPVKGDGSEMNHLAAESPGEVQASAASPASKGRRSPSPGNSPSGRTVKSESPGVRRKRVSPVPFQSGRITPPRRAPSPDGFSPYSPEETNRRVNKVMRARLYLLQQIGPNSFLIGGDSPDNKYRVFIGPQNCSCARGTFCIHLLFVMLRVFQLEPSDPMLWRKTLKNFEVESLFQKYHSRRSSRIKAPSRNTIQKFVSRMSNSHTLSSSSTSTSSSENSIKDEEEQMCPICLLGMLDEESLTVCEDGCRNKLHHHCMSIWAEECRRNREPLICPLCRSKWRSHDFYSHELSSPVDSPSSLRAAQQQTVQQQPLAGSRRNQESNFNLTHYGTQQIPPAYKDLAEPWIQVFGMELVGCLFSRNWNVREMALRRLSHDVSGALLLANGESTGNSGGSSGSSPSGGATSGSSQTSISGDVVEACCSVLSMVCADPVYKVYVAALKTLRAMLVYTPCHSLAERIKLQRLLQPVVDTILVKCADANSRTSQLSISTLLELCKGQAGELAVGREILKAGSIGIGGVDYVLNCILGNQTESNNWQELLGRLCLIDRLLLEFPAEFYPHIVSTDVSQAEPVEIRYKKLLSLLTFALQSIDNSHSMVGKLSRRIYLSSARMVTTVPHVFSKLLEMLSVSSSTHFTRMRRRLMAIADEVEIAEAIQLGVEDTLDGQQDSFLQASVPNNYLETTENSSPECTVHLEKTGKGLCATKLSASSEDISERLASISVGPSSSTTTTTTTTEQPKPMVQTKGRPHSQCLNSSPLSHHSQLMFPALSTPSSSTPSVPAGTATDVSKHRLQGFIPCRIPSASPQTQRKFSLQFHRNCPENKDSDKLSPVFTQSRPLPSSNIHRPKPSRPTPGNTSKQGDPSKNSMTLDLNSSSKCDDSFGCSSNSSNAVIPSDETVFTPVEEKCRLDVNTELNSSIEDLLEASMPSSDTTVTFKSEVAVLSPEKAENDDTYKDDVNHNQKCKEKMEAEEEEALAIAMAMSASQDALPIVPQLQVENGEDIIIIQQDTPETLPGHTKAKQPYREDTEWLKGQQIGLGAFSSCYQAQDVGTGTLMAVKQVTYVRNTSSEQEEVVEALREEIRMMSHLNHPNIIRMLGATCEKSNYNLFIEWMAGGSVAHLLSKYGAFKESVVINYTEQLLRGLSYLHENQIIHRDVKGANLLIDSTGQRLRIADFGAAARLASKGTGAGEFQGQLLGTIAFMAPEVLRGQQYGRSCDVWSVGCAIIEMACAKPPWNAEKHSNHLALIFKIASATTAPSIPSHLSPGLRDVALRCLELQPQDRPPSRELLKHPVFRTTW
Sequence of JNK1 (P45983 whole entry): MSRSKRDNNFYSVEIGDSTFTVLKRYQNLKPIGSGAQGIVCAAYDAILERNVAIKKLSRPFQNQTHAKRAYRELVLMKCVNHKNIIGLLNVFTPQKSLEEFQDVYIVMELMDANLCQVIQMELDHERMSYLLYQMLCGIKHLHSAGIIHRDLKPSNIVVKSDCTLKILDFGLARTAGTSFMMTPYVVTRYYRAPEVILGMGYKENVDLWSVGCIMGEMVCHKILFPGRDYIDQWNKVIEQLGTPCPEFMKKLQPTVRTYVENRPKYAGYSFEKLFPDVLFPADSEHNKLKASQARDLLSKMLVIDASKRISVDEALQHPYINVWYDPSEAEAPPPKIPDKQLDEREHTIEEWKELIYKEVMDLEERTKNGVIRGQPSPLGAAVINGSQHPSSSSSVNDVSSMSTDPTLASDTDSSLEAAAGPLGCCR
Sequence of MLK3 (Q16584 whole entry): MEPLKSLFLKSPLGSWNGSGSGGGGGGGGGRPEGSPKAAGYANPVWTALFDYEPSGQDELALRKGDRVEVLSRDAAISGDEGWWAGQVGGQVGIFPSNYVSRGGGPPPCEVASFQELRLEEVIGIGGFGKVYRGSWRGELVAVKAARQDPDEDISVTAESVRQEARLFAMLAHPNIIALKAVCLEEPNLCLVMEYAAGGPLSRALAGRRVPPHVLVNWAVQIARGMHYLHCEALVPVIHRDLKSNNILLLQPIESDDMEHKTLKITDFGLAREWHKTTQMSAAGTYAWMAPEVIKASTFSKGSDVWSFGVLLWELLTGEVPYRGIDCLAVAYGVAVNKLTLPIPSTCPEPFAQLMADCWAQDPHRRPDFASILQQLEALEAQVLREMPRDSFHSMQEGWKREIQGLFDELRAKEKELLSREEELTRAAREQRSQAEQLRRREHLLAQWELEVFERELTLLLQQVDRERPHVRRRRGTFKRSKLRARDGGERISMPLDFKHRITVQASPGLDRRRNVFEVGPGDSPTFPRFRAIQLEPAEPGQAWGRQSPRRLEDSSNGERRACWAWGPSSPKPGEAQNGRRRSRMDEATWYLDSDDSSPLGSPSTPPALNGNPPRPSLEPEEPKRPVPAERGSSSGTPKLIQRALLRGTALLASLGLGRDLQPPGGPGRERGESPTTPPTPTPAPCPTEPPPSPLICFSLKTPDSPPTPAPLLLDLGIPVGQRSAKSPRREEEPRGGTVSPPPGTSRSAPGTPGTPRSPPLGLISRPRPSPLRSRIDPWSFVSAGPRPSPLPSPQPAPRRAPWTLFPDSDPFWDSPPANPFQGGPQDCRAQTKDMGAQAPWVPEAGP

Row | Compound | remaining activity at 1 µM (CDK2-Cyclin A; 1 µM) | remaining activity at 1 µM (ERK5; 1 µM) | remaining activity at 1 µM (IGF-1R; 1 µM) | remaining activity at 1 µM (JNK1; 1 µM) | remaining activity at 1 µM (MEKK1; 1 µM) | remaining activity at 1 µM (MLK3; 1 µM) | remaining activity at 1 µM (MNK1; 1 µM) | remaining activity at 1 µM (PIM3; 1 µM) | remaining activity at 1 µM (PKC gamma; 1 µM) | remaining activity at 1 µM (SIK2; 1 µM) | remaining activity at 1 µM (STK33) | remaining activity at 1 µM (p38 gamma MAPK; 1 µM) | NDRG1 phosphorylation [1, 2] | pNDRG1 phosphorylation [1, 3] | NDRG1 phosphorylation [1, 4] | remaining activity at 1 µM (CDK2-Cyclin A) | remaining activity at 1 µM (ERK5) | remaining activity at 1 µM (IGF-1R) | remaining activity at 1 µM (JNK1) | remaining activity at 1 µM (MEKK1) | further results
1 | Cc1ccc(F)c(S(=O)(=O)Nc2ccc(-c3nc(OC[C@H]4CN(CCCCCCOCCOCCOCC(=O)N[C@H](C(=O)N5C[C@H](O)C[C@H]5C(=O)NCc5ccc(-c6scnc6C)cc5)C(C)(C)C)CCO4)c4cn[nH]c4n3)cc2)c1 [SGK3-PROTAC1] | 101% | 102% | 82% | 117% | 124% | 71% | 108% | 88% | 103% | 95% | 110% | 107% | reduced NDRG1 phosphorylation | minimal effect | markedly suppressed | – | – | – | – | – | –
2 | COc1ccc(Cl)c(S(=O)(=O)Nc2ccc(-c3nc(OC[C@H]4CNCCO4)c4c(C)n[nH]c4n3)cc2)c1 [290-R, reference compound] | – | – | – | – | – | – | – | – | – | – | 74% | – | – | – | – | 94% | 84% | 88% | 101% | 112% | remaining activity at 1 µM (MLK3): 10%; remaining activity at 1 µM (MNK1): 87%; remaining activity at 1 µM (PIM3): 105%; remaining activity at 1 µM (PKC gamma): 101%; remaining activity at 1 µM (SIK2): 91%; remaining activity at 1 µM (p38 gamma MAPK): 112%
3 | Cc1ccc(F)c(S(=O)(=O)Nc2ccc(-c3nc(OC[C@H]4CN(CCCCCCOCCOCCOCC(=O)N[C@H](C(=O)N5C[C@@H](O)C[C@H]5C(=O)NCc5ccc(-c6scnc6C)cc5)C(C)(C)C)CCO4)c4cn[nH]c4n3)cc2)c1 [cisSGK3-PROTAC1] | 103% | 108% | 93% | 119% | 128% | 76% | 103% | 89% | 100% | 94% | 109% | 127% | no effect | – | – | – | – | – | – | – | concentration required to lower NDRG1 phosphorylation ([1]; 3 μM AZD5363 1 h before lysis): above 1 μM
4 | Cc1ccc(F)c(S(=O)(=O)Nc2ccc(-c3nc(OC[C@H]4CNCCO4)c4cn[nH]c4n3)cc2)c1 [308-R, reference compound] | – | – | – | – | – | – | – | – | – | – | 36% | – | – | minimal effect | markedly suppressed | 61% | 73% | 95% | 112% | 115% | remaining activity at 1 µM (MLK3): 24%; remaining activity at 1 µM (MNK1): 77%; remaining activity at 1 µM (PIM3): 76%; remaining activity at 1 µM (PKC gamma): 90%; remaining activity at 1 µM (SIK2): 55%; remaining activity at 1 µM (p38 gamma MAPK): 111%
